In EP3590935A1, “FUSED IMIDAZOLIUM DERIVATIVES FOR USE IN THE TREATMENT OF COLORECTAL CANCER” (Deutsches Krebsforschungszentrum, Stiftung des öffentlichen …, priority 2018, dated 2020):
“Also recorded” adds a separate entry of the source.

Tests used:
[1] = test system: CMS1 (HCT116, RKO, LoVo, SNU-C2A, LIM2405, WiDr) and CMS2 (CaCo2, HT55, CL14, SW403, GP2d, HCA24) cell lines; test: Drug response curves (viability, AUC) in a panel of CMS1 and CMS2 cell lines; assay type: cell-based; conditions: 72 h; 6 CMS1 and 6 CMS2 cell lines
From the text: The present invention will now be further described in the following examples with reference to the accompanying figures and sequences, nevertheless, without being limited thereto. For the purposes of the present invention, all references as cited herein are incorporated by reference in their entireties. In the Figures: • Figure 1: Classification of colorectal cancer cell lines into consensus molecular subtypes (CMS). • (A) Workflow of data collection and subtype classification. Expression data of CRC cell lines were retrieved from six publicly available datasets. For each dataset, the CMS of every cancer cell line was separately identified using the R package 'CMSclassifier'. The CMS that was determined by the majority of datasets was then considered as the consensus. Finally, genomic data from CCLE and COSMIC were used to analyse CMS specific distributions of mutations and copy number alterations. • (B) Distribution of CRC cell lines to different CMS. […] Drug response data from a large screen performed by Iorio et al. was combined with the CMS classification of CRC cell lines to identify differential drug effects between CMS1 and CMS2 cell lines. […] Cell lines were treated with increasing drug concentrations for 72 h. […] The CMS1 cell lines RKO and HCT116 and the CMS2 cell lines HT55 and CaCo2 were treated with increasing concentrations of YM155. Induction of apoptosis was measured by FACS after staining with APC Annexin V and 7-AAD. […] Data are shown as mean value ± s.e.m. of 3-4 independent replicates. Cell lysates were additionally analyzed by PARP and CASP8 immunoblot. β-actin serves as a loading control. […] CMS1 and 2 cell lines were treated with increasing concentrations of the Bcl2 inhibitor navitoclax for 72 h. […] The CMS1 cells lines RKO and HCT116 were treated with different concentrations of YM155 for 48 h and the expression of survivin was measured by qPCR. […] (E) HCT116, RKO, HT55 and CaCo2 cells were treated with 10 nM of YM155 for 24 h, after which global expression was determined by microarray analysis. […]

[2] = test system: CMS1 cell lines RKO and HCT116 and the CMS2 cell lines HT55 and CaCo2; test: Apoptosis by flow cytometry (APC Annexin V and 7-AAD); assay type: cell-based; conditions: increasing concentrations; CMS1 (RKO, HCT116) versus CMS2 (HT55, CaCo2)
From the text: (§1) The present invention will now be further described in the following examples with reference to the accompanying figures and sequences, nevertheless, without being limited thereto. For the purposes of the present invention, all references as cited herein are incorporated by reference in their entireties. In the Figures: • Figure 1: Classification of colorectal cancer cell lines into consensus molecular subtypes (CMS). • (A) Workflow of data collection and subtype classification. Expression data of CRC cell lines were retrieved from six publicly available datasets. For each dataset, the CMS of every cancer cell line was separately identified using the R package 'CMSclassifier'. The CMS that was determined by the majority of datasets was then considered as the consensus. […] Heatmap showing the viability effect of YM155 on individual CMS1 and CMS2 cell lines within the screen (blue indicates a low viability as measured by the AUC). • (C-D) Validation of YM155 as a selective drug in CMS1 colorectal cancer. […] Induction of apoptosis was measured by FACS after staining with APC Annexin V and 7-AAD. […] Cell lysates were additionally analyzed by PARP and CASP8 immunoblot. β-actin serves as a loading control. […] The CMS1 cells lines RKO and HCT116 were treated with different concentrations of YM155 for 48 h and the expression of survivin was measured by qPCR. […]

[3] = test system: HCT116, RKO, HT55 and CaCo2 cells; test: Global expression analysis by microarray after treatment; assay type: cell-based; conditions: 10 nM, 24 h; CMS1 versus CMS2 cell lines
From the text: as §1

[4] = test system: CMS1 and CMS2 CRC cell lines; test: Analysis of public drug screen data (Iorio et al.): viability effect (AUC) in CMS-classified CRC cell lines; assay type: cell-based; conditions: 8 CMS1 and 16 CMS2 CRC cell lines, 256 drugs, 2016
From the text: The present invention will now be further described in the following examples with reference to the accompanying figures and sequences, nevertheless, without being limited thereto. For the purposes of the present invention, all references as cited herein are incorporated by reference in their entireties. In the Figures: • Figure 1: Classification of colorectal cancer cell lines into consensus molecular subtypes (CMS). • (A) Workflow of data collection and subtype classification. Expression data of CRC cell lines were retrieved from six publicly available datasets. For each dataset, the CMS of every cancer cell line was separately identified using the R package 'CMSclassifier'. The CMS that was determined by the majority of datasets was then considered as the consensus. […] Induction of apoptosis was measured by FACS after staining with APC Annexin V and 7-AAD. […] Cell lysates were additionally analyzed by PARP and CASP8 immunoblot. β-actin serves as a loading control. […] The CMS1 cells lines RKO and HCT116 were treated with different concentrations of YM155 for 48 h and the expression of survivin was measured by qPCR. […] (E) HCT116, RKO, HT55 and CaCo2 cells were treated with 10 nM of YM155 for 24 h, after which global expression was determined by microarray analysis. […]

solid tumours = conditions: phase I and II trials, solid non-CRC tumours; cited from earlier work
PARP and CASP3 = test: Immunoblot of PARP and caspase cleavage; assay type: cell-based; conditions: cell lysates; CMS1 versus CMS2 cell lines
survivin = test: Survivin transcript (qPCR) and protein levels after treatment; assay type: cell-based; conditions: four CRC cell lines
From the text: as §1

[5] = test system: CMS1 cell lines HCT116 and RKO; test: Long-term proliferation assay; assay type: cell-based; conditions: CMS1 (HCT116, RKO) versus CMS2
HCT116 and HT55 = test: Single knockout validation (SLC35F2, CCDC22, WASHC4, SNX17): drug-induced apoptosis by FACS; assay type: cell-based
From the text: as §1

Row | Compound | sensitivity of CMS1 versus CMS2 cell lines (dose response curves, comparison of AUCs) [1] | induction of apoptosis (percentage of apoptotic cells) [2] | global expression [3] | differential effect between CMS1 and 2 (viability effect, AUC) [4] | clinical benefit / efficacy (solid tumours) | tolerability / toxicity profile (solid tumours) | cleavage of PARP and CASP3 (PARP and CASP3) | protein levels of survivin (survivin) | expression of survivin (transcript) (survivin; qPCR, 48 h) | higher sensitivity of CMS1 cell lines [5] | effect of candidate gene knockout on drug-induced apoptosis (HCT116 and HT55; HCT116 (CMS1)) | effect of candidate gene knockout on drug sensitivity (HCT116 and HT55; HT55 (CMS2))
1 | CC1(C)CCC(c2ccc(Cl)cc2)=C(CN2CCN(c3ccc(C(=O)NS(=O)(=O)c4ccc(N[C@H](CCN5CCOCC5)CSc5ccccc5)c(S(=O)(=O)C(F)(F)F)c4)cc3)CC2)C1 [navitoclax] | does not show a significant difference between CMS1 and CMS2; also recorded: no difference in navitoclax sensitivity between CMS1 and CMS2 cell lines |  |  |  |  |  |  |  |  |  |  | 
2 | O=c1[nH]cc(F)c(=O)[nH]1 [5-fluorouracil] | do not show a different viability effect in CMS1 and CMS2 colorectal cancer; also recorded: no difference in response rates could be detected between CMS1 and CMS2 |  |  |  |  |  |  |  |  |  |  | 
3 | COCCn1c2c([n+](Cc3cnccn3)c1C)C(=O)c1ccccc1C2=O [YM155, 11-(2-methoxyethyl)-2-methyl-4,9-dioxo-3-(pyrazin-2-ylmethyl)-4,9-dihydro-1H-naphtho(2,3-d)imidazolium bromide] | significantly higher vulnerability of CMS1 colorectal cancer; also recorded: significantly more sensitive | Apoptosis can be measured at lower concentrations in CMS1 cell lines; also recorded: apoptosis was induced in CMS1 cell lines at significantly lower concentrations | global expression was dynamically reshaped upon treatment in CMS1 cell lines | selective effect on CMS1 cancer; also recorded: strongest differential effect between CMS1 and 2 | efficacy results are mixed; also recorded: failed to show clinical benefit; also recorded: no clinical benefit was observed | safe and good tolerability and favourable toxicity profile | detected at low concentrations in CMS1 but not CMS2 cell lines; also recorded: occurred at lower concentrations in RKO compared to CaCo2 | protein levels of survivin are only reduced at high concentrations | expression of survivin is only repressed in RKO cells | approximately 100 fold | All candidate genes lead to resistance to YM155 induced apoptosis at different concentrations in HCT116; also recorded: resistance against YM155 induced apoptosis in HCT116 | only SLC35F2 knockout mediates resistance in HT55; also recorded: did not change YM155 sensitivity in HT55
